Holding throughout (assay): DTP human tumour cell line panel, 48 h
Assay [1] relates to K562.
Assay [2] concerns OVCAR-3.
Assay [3] deals with A549.
Assay [4] has as its system M14.
The test system of assay [5] is A498.
In assay [6] the test system is COLO 205.
Assay [7] deals with UO-31.
In assay [8] the test system is LXFL 529.
The subject of assay [9] is Malme-3M.
Assay [10] relates to LOX IMVI.
Assay [11] concerns SK-MEL-28.
Assay [12] deals with SNB-75.
The test system of assay [13] is T47D.
Assay [14] relates to KM12.
The test system of assay [15] is TK-10.
Assay [16] deals with SN12C.
For assay [17], the system named is RPMI-8226.
The subject of assay [18] is MDA-MB-231.
For assay [19], the system named is HOP-92.
Assay [20] relates to ACHN.

Each structure is given as a SMILES string.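 Protocol summary: plate cells (96-well), add compound at 5 concentrations, incubate 48 h, interpolate endpoints linearly. The concentration for 50% growth inhibition is given as GI50.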 Active and inactive are the calls of the source. No stated cut-off is given here; in the data, active = GI50 up to about 1.1 µM and inactive = higher.

As for `O=P(NC12CC3CC(CC(C3)C1)C2)(N1CC1)N1CC1`, the GI50 in assay [1] is 37.6 µM (inactive); in assay [2], > 86.1 µM (inactive); in assay [3] it was 26.5 µM (inactive); in assay [4], 37.1 µM (inactive); in assay [5], 45.5 µM (inactive); in assay [6] it was > 100 µM (inactive). Also, the GI50 in assay [7] was 30.5 µM (inactive); in assay [8] it was 64.4 µM (inactive); in assay [9] it was 84.9 µM (inactive); in [10] it was 11.1 µM (inactive); in [11], > 100 µM (inactive); in [12], 22.4 µM (inactive). The GI50 was 94.8 µM (inactive) in assay [13]; > 100 µM (inactive) in assay [14]; > 100 µM (inactive) in assay [15]; 10.5 µM (inactive) in [16]; > 66.1 µM (inactive) in [17]; > 100 µM (inactive) in assay [18]. The GI50 in [19] is 18.5 µM (inactive); in assay [20], 4.67 µM (inactive).

`CC(C)(C)NNc1c([N+](=O)[O-])cnn(-c2ccccc2)c1=O`: the GI50 in [1] is 0.942 µM (active); in [2] it was 2.59 µM (inactive); in [3], 15.3 µM (inactive); in assay [4], 2.17 µM (inactive); in assay [5] it was 29.8 µM (inactive); in [6], 4.63 µM (inactive). For the same molecule, the GI50 is 6.12 µM (inactive) in assay [7]; 1.78 µM (inactive) in assay [8]; 4.05 µM (inactive) in [9]; 1.79 µM (inactive) in [10]; 2.49 µM (inactive) in assay [11]; 9.86 µM (inactive) in assay [12]. For the same molecule, the GI50 in [13] is 2.29 µM (inactive); in assay [14], 10.4 µM (inactive); in [15], 22 µM (inactive); in [16] it was 3.14 µM (inactive); in [17] it was 3.96 µM (inactive); in assay [19], 6.5 µM (inactive). Further, the GI50 in [20] is 8.71 µM (inactive).

As usually defined, the GI50 is the concentration that inhibits growth by half.

Source of the values: ChEMBL document CHEMBL1201862, “PubChem BioAssay data set” (2004).
